US8709803B2, “Cell transport system comprising a homogeneous mixture of agarose and agarase” (Histocell, S.L., priority 2008, dated 2014)

How the values were obtained:
SK-N-MC cells [1] = test: Verification of morphology and cell density by microscopy on plates treated with laminin (FIG. 8b); assay type: cell-based, human; settings: plates with laminin vs normal plate, same number of starting cells
Experimental: (§1) As a result, SK-N-MC cells were cultured in standard 24-well plates and in 24-well plates previously treated with laminin (Laminin 24-well Multiwell plates, BD) at a cell density of 300,000 cells per well and 1 ml of specific medium consisting of MEM medium supplemented with 2 mM L-glutamine, 1 mM sodium pyruvate, 0.1 mM non-essential amino acids, […] of gentamicin and 1% antibiotic at 37° C. and 5% CO2.
(§2) The day after seeding the SK-N-MC cells in the standard 24-well plates and in 24-well plates treated with laminin, transport conditions are simulated according to the specifications described in the previous example.
In turn, the analysis of the cell morphology of the cultures of SK-N-MC in normal 24-well plates and 24-well plates treated with laminin shown in FIG. 8b proves that the number of cells in the culture in plates with laminin is greater than that of the culture in a normal plate despite the fact that the number of starting cells for both of them is the same, which reaffirms the results obtained from measuring the proliferation by means of MTT. The non-detection of the difference in the cell density by the proliferation assay by means of MTT can be due to the high cell confluence of both cultures.

SK-N-MC cells [2] = test: Proliferation assay with MTT on plates treated with laminin (FIG. 8a); assay type: cell-based, human; settings: plate treated with laminin vs standard 24-well plate
Experimental: as §1, §2
Once the time necessary for the cells to recover from transport has elapsed, the proliferation rate of both cultures is determined by means of measuring cell proliferation at times 24 and 48 h using the MTT test described in the previous example.

laminin
number of cells in the culture (microscopy) (SK-N-MC cells [1]): greater
proliferation rate (MTT) (SK-N-MC cells [2]; after 24 hours in culture): an increase in the proliferation
proliferation rate (MTT) (SK-N-MC cells [2]; after 48 hours in culture): equal
